Drawing on patent US10821115B2, “Compounds that inhibit Mcl-1 protein” (priority 2017, dated 2020), this text covers IC50 for eleven compounds.

The target of experiment [1] is recombinant human Mcl-1 (residues 171-327) / Bim interaction (Homo sapiens (Human), UniProt Q07820). Description: biochemical. Particulars: read-out: Mcl-1 HTRF IC50. Format: binding.
Experiment [2] deals with human multiple myeloma cell line, OPM-2. Briefly: Cell viability assay (OPM-2 10 FBS), CellTiter-Glo. The format is cell-based. The method, boiled down: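 Cells were seeded at 3000 cells/well in RPMI 1640 with 10% FBS and exposed to serially diluted compounds for 16 h at 37 °C, 5% CO2.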
[3] abbreviates: TR-FRET, Mcl-1(171-327) / biotin-Bim (51-76).
Setting [4] is: Homo sapiens, OPM-2, 16 h, read-out: OPM-2 10% FBS IC50 IP, OPM-2 cells, 10% FBS, 16 h, CellTiter-Glo.
[5] abbreviates: read-out: OPM-2 10% FBS IC50 IP, OPM-2 cells, 10% FBS, 16 h, CellTiter-Glo.
The mark [6] stands for this setting: 0.1 nM Mcl-1(171-327), 0.05 nM biotin-Bim (51-76).

Where two headings read alike, the source gives them in different places.

Chain of recombinant human Mcl-1 (residues 171-327) / Bim interaction (Q07820 171-327): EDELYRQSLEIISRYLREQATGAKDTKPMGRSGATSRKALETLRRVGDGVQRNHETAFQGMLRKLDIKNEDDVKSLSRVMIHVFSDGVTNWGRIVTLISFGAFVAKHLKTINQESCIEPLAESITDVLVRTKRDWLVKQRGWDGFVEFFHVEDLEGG

Take `C[C@@H]1[C@@H](C)CCC[C@@](O)(CC[S@@+](C)[O-])[C@@H]2CC[C@H]2CN2C[C@@]3(CCCc4cc(Cl)ccc43)COc3ccc(cc32)C(=O)NS1(=O)=O` [Example 100329, (1S,3′R,6′R,7′R,11′S,12′R)-6-chloro-7′-hydroxy-11′,12′-dimethyl-7′-(2-((R)-methylsulfinyl)ethyl)-3,4-dihydro-2H,15′H-spiro[naphthalene-1,22′-[20]oxa[13]thia[1,14]diazatetracyclo [14.7.2.0~3,6~.0~19,24~]pentacosa[16,18,24]trien]-15′-one 13′,13′-dioxide]: the IC50 in experiment [1] (setting [3]) turned out to be 5.02 nM; in experiment [2] (setting [4]), 1560 nM.

On to `C[C@@H]1[C@@H](C)C/C=C/[C@@](O)(Cc2ccncn2)[C@@H]2CC[C@H]2CN2C[C@@]3(CCCc4cc(Cl)ccc43)COc3ccc(cc32)C(=O)NS1(=O)=O` [Example 100152, (1S,3′R,6′R,7′S,8′E,11′S,12′R)-6-chloro-7′-hydroxy-11′,12′-dimethyl-7′-(4-pyrimidinylmethyl)-3,4-dihydro-2H,15′H-spiro[naphthalene-1,22′-[20]oxa[13]thia[1,14]diazatetracyclo [14.7.2.0~3,6~.0~19,24~]pentacosa[8,16,18,24]tetraen]-15′-one 13′,13′-dioxide], for which the IC50 is 0.449 nM in experiment [1] (setting [3]) and 377 nM in experiment [2] (setting [5]).

As to `CO[C@]1(CCN(C)C)CCC[C@H](C)[C@@H](C)S(=O)(=O)NC(=O)c2ccc3c(c2)N(C[C@@H]2CC[C@H]21)C[C@@]1(CCCc2cc(Cl)ccc21)CO3` [Example 100472, (1S,3′R,6′R,7′S,11′S,12′R)-6-chloro-7′-(2-(dimethylamino)ethyl)-7′-methoxy-11′,12′-dimethyl-3,4-dihydro-2H,15′H-spiro[naphthalene-1,22′-[20]oxa[13]thia[1,14]diazatetracyclo [14.7.2.0~3,6~.0~19,24~]pentacosa[16,18,24]trien]-15′-one 13′,13′-dioxide], the values for the IC50 in experiment [1] (setting [3]) and in experiment [2] (setting [4]) were 0.651 nM and 357 nM, respectively.

On to `COC(=O)[C@@H](C)NC(=O)C[C@]1(OC)/C=C/C[C@H](C)[C@@H](C)S(=O)(=O)NC(=O)c2ccc3c(c2)N(C[C@@H]2CC[C@H]21)C[C@@]1(CCCc2cc(Cl)ccc21)CO3` [Example 100528, methyl N-(((1S,3′R,6′R,7′S,8′E,11′S,12′R)-6-chloro-7′-methoxy-11′,12′-dimethyl-13′,13′-dioxido-15′-oxo-3,4-dihydro-2H-spiro[naphthalene-1,22′-[20]oxa[13]thia[1,14]diazatetracyclo [14.7.2.0~3,6~.0~19,24~]pentacosa[8,16,18,24]tetraen]-7′-yl)acetyl)-D-alaninate], for which the results for the half-inhibitory concentration (IC50) in experiment [1] (setting [3]) and in experiment [2] (setting [4]) were 0.138 nM and 257 nM, respectively.

For “(1S,3′R,6′R,7′S,8′E, 11′S,12′R)-6-chloro-12′-(2-chloroethyl)-7′-((9aS)-hexahydropyrazino[2,1-c][1,4]oxazin-8(1H)-ylmethyl)-7′-methoxy-11′-methyl-3,4-dihydro-2H,15′H-spiro[naphthalene-1,22′-[20]oxa[13]thia[1,14]diazatetracyclo[14.7.2.0-3,6˜.0˜19,24˜]pentacosa[8,16,18,24]tetraen]-15′-one 13′,13′-dioxide [Example 366]”, the half-maximal inhibitory concentration (IC50) in experiment [1] (setting [6]) was found to be 0.248 nM; in experiment [2] (read-out: OPM-2 10% FBS IC50 IP, OPM-2 cells, 10% FBS, 16 h incubation), 133 nM.

As for `Cc1ccc([C@@]2(O)/C=C/C[C@H](C)[C@@H](C)S(=O)(=O)NC(=O)c3ccc4c(c3)N(C[C@@H]3CC[C@H]32)C[C@@]2(CCCc3cc(Cl)ccc32)CO4)cn1` [Example 100407, (1S,3′R,6′R,7′R,8′E,11′S,12′R)-6-chloro-7′-hydroxy-11′,12′-dimethyl-7′-(6-methyl-3-pyridinyl)-3,4-dihydro-2H,15′H-spiro[naphthalene-1,22′-[20]oxa[13]thia[1,14]diazatetracyclo [14.7.2.0~3,6~.0~19,24~]pentacosa[8,16,18,24]tetraen]-15′-one 13′,13′-dioxide], the values for the concentration for half-maximal inhibition (IC50) in experiment [1] (setting [3]) and in experiment [2] (setting [4]) were 0.278 nM and 516 nM, respectively.

On to `C[C@@H]1[C@@H](C)C/C=C/[C@@](O)(CC#N)[C@@H]2CC[C@H]2CN2C[C@@]3(CCCc4cc(Cl)ccc43)COc3ccc(cc32)C(=O)NS1(=O)=O` [Example 100050, ((1S,3′R,6′R,7′S,8′E,11′S,12′R)-6-chloro-7′-hydroxy-11′,12′-dimethyl-13′,13′-dioxido-15′-oxo-3,4-dihydro-2H-spiro[naphthalene-1,22′-[20]oxa[13]thia[1,14]diazatetracyclo [14.7.2.0~3,6~.0~19,24~]pentacosa[8,16,18,24]tetraen]-7′-yl)acetonitrile], for which the values for the IC50 in experiment [1] and in experiment [2] (setting [5]) were 1.28 nM and 3820 nM, respectively.

As for `CCO[C@]1(CN2CCN3CCOC[C@@H]3C2)/C=C/C[C@H](C)[C@@H](COC)S(=O)(=O)NC(=O)c2ccc3c(c2)N(C[C@@H]2CC[C@H]21)C[C@@]1(CCCc2cc(Cl)ccc21)CO3` [Example 171, (1S,3′R,6′R,7′R,8′E,11′S,12′S)-6-chloro-7′-ethoxy-7′-((9aS)-hexahydropyrazino[2,1-c][1,4]oxazin-8(1H)-ylmethyl)-12′-(methoxymethyl)-11′-methyl-3,4-dihydro-2H,15′H-spiro[naphthalene-1,22′-[20]oxa[13]thia[1,14]diazatetracyclo [14.7.2.0~3,6~.0~19,24~]pentacosa[8,16,18,24]tetraen]-15′-one 13′,13′-dioxide], the half-maximal inhibitory concentration (IC50) is 0.074 nM in experiment [1] (setting [6]) and 122 nM in experiment [2] (Homo sapiens, OPM-2, 16 h, read-out: OPM-2 10% FBS IC50 IP, OPM-2 cells, 10% FBS, 16 h incubation).

For the compound `CO[C@@]1(CC(=O)O)/C=C/C[C@H](C)[C@@H](C)S(=O)(=O)NC(=O)c2ccc3c(c2)N(C[C@@H]2CC[C@H]21)C[C@@]1(CCCc2cc(Cl)ccc21)CO3` [Example 100307, ((1S,3′R,6′R,7′S,8′E,11′S,12′R)-6-chloro-7′-methoxy-11′,12′-dimethyl-13′,13′-dioxido-15′-oxo-3,4-dihydro-2H-spiro[naphthalene-1,22′-[20]oxa[13]thia[1,14]diazatetracyclo [14.7.2.0~3,6~.0~19,24~]pentacosa[8,16,18,24]tetraen]-7′-yl)acetic acid], the IC50 in experiment [1] (setting [3]) came out at 0.049 nM; in experiment [2] (setting [4]) it was 1030 nM.

For `C[C@@H]1[C@@H](C)CCC[C@@](O)(C#CCCN2CCOCC2)[C@@H]2CC[C@H]2CN2C[C@@]3(CCCc4cc(Cl)ccc43)COc3ccc(cc32)C(=O)NS1(=O)=O` [Example 100372, (1S,3′R,6′R,7′S,11S,12R)-6-chloro-7′-hydroxy-11′,12′-dimethyl-7′-(4-(4-morpholinyl)-1-butyn-1-yl)-3,4-dihydro-2H,15′H-spiro[naphthalene-1,22′-[20]oxa[13]thia[1,14]diazatetracyclo [14.7.2.0~3,6~.0~19,24~]pentacosa[16,18,24]trien]-15′-one 13′,13′-dioxide], the IC50 is 0.165 nM in experiment [1] (setting [3]) and 833 nM in experiment [2] (setting [5]).

In the case of `CO[C@@]1(CC(=O)N2CCC2)/C=C/C[C@H](C)[C@@H](C)S(=O)(=O)NC(=O)c2ccc3c(c2)N(C[C@@H]2CC[C@H]21)C[C@@]1(CCCc2cc(Cl)ccc21)CO3` [Example 100006, (1 S,3′R,6′R,7′S,8′E,11′S,12′R)-7′-(2-(1-azetidinyl)-2-oxoethyl)-6-chloro-7′-methoxy-1′,12′-dimethyl-3,4-dihydro-2H, 15′H-spiro[naphthalene-1,22′-[20]oxa[13]thia[1,14]diazatetracyclo[14.7.2.0-3,6˜.0˜19,24˜]pentacosa[8,16,18,24]tetraen]-15′-one 13′,13′-dioxide], the half-maximal inhibitory concentration (IC50) in experiment [1] (setting [3]) was 0.081 nM; in experiment [2] (setting [4]), 131 nM.
